The source of these data is US9505743B2, “Matrix metalloproteinase inhibitors and methods for the treatment of pain and other diseases” (AQUILUS PHARMACEUTICALS, INC., priority 2012, dated 2016).

The structures appear in SMILES notation.

Data set [1] deals with Catalytic domain of MMP-13 (human recombinant) (Homo sapiens (Human), UniProt P45452). The data set can be described thus: MMP-13 inhibition assay. It is filed as biochemical. Here is the method:
Catalytic domain of MMP-13 (human recombinant) enzyme was then added to the compound solution. […] The time-dependent increase in fluorescence is measured at the 355 nm excitation and 405 nm emission by automatic plate multireader.

The nature of data set [2]: In vivo rat pharmacokinetics, oral administration. The conditions noted are these: plasma, PO 1.0 mg/kg, male Lewis rats, mean. As to the method:
Six (6) male Lewis rats were used. Fasting was conducted at least 16 hours prior to dose administration. Food was returned at approximately 4 hours post dose. The animals were placed into 2 groups of 3 animals per group. The oral (PO) formulation for Groups 1 & 2 were prepared on the day of dosing at a target concentration of 0.5 mg/mL in 0.5% Methylcellulose (400 cps) to produce a white, homogeneous suspension. Dosing was performed as outlined in Table 24:
Each animal in Group 1 received prepared compound (56) by oral dose administration at a target dose level of 1.0 mg/kg and at a dose volume of 2 mL/kg. Each animal in Group 2 received prepared compound (45) by oral dose administration at a target dose level of 1.0 mg/kg and at a dose volume of 2 mL/kg (Table 24). Whole blood samples (0.250 mL; K2EDTA anticoagulant) were collected from each animal through a jugular vein catheter. Whole blood samples were collected from all animals pre-dose, and at 0.25, 0.5, 1, 2, 4, 8, 16, and 24 hours after dose administration. All blood samples were immediately placed on ice until processing. Whole blood samples were centrifuged at 2200×g for 10 minutes in a refrigerated centrifuge (5±3° C.) to isolate plasma. The plasma samples were transferred to individual polypropylene vials and immediately placed on dry ice before storage at nominally −20±5° C. The plasma samples some time later were then thawed and extracted and analyzed by high pressure liquid chromatography (HPLC) coupled to Mass Spectrometery (MS) (Table 25). Pharmacokinetic parameters (Table 25) were estimated using WinNonlin® pharmacokinetic software (Version No. 5.2.1) using a non-compartmental approach consistent with the PO route of administration.

For data set [3] the following is noted: clinical; cited from earlier work.
Data set [4] is described as follows: In-vitro human microsomal stability. It is filed as in vitro ADME. The conditions noted are these: human microsomes, compound 1 microMoles, at T = 60 minutes. As to the method:
(§1) Human and Rat microsomal stability was determined for select compounds following the method of Houston (Houston, J B; Biochem. Pharmacol. 47, (1994), 1469). 1 μM concentration of compound and separate human and Rat microsomes (0.3 mg/mL, BD bioscience) were used in the in-vitro assay. To ensure proper energy supply for microsomal degradation of compound, an energy regenerating system comprised of 100 mM potassium phosphate, 2 mM NADPH, 3 mM MgCl2, pH=7.4 and the microsomal protein is added to each sample and the resulting suspension is then incubated in duplicate for 60 min at 37° C. in a rotary shaker. A control is run for each test agent in duplicate omitting NADPH to detect NADPH-free degradation. At T=0 and T=60 min., an aliquot is removed from each experimental and control reaction and then mixed with an equal volume of ice-cold Stop Solution (consisting of 0.3% acetic acid in acetonitrile containing haloperidol and diclofenac as internal standards). Stopped reactions are then incubated for at least ten minutes at −20° C., and an additional volume of water is then added. The samples are then centrifuged to remove precipitated protein, and the supernatants are then analyzed by LC-MS/MS to determine the percentage of compound remaining. The LC-MS/MS system used was an Agilent 6410 mass spectrometer coupled with an Agilent 1200 HPLC and a CTC PAL chilled autosampler, all controlled by MassHunter software (Agilent), or an ABI2000 mass spectrometer coupled with an Agilent 1100 HPLC and a CTC PAL chilled autosampler, all controlled by Analyst software (ABI). After separation on a C18 reverse phase HPLC column (Agilent, Waters, or equivalent) using an acetonitrile-water gradient system, peaks were analyzed by mass spectrometry (MS) using ESI ionization in MRM mode. Verapamil (high metabolized) and Warfarin (low metabolized) are used as controls to test the activity of the microsomal proteins. Table 15 and 16 below show the microsomal stability of select compounds in both human and Rat microsomes.

A short description of data set [5]: In-vitro rat microsomal stability. The following applies: rat microsomes, compound 1 microMoles, at T = 60 minutes. It counts as in vitro ADME. Here is the method:
as §1

Data set [6] has as its target Catalytic domain of MMP-2 (human recombinant) (Homo sapiens (Human), UniProt P08253). Kind of data set: MMP-2 inhibition assay. The conditions noted are these: read-out: Average Percent Inhibition MMP-2.
Experimental: A concentration of MMP inhibitor of the present invention was tested (10 microMolar) in duplicate runs. Catalytic domain of MMP-2 (human recombinant) enzyme (10 nanoMolar) was added to the compound solution. The mixture of enzyme and compound in assay buffer was then thoroughly mixed and incubated for 60 minutes at 37° C. Upon the completion of incubation, the assay was then started by the addition of 10 μM of fluorescent substrate Mca-P-L-G-L-Dpa-A-R-NH2 (Kd ˜8 microMolar). The fluorescent product, McaPLG, was then measured at excitation of 355 nm and emission 405 nm by an automatic plate multireader at 37° C. […] Any inhibition <50% is considered not active under these assay conditions.
Data set [7] has as its target Catalytic domain of MMP-9 (human recombinant) (Homo sapiens (Human), UniProt P14780). Kind of data set: MMP-9 inhibition assay. The following applies: compound 10 microMolar; substrate DNP-Pro-Cha-Gly-Cys(Me)-His-Ala-Lys(N-Me-Abz)-NH2 10 microMolar; <50% considered not active; read-out: Average Percent Inhibition MMP-9. It is filed as biochemical.
Experimental: A concentration of MMP inhibitor of the present invention was tested (10 microMolar) in duplicate runs. Catalytic domain of MMP-9 (human recombinant) enzyme (10 nanoMolar) was added to the compound solution. The mixture of enzyme and compound in assay buffer was then thoroughly mixed and incubated for 60 minutes at 37° C. Upon the completion of incubation, the assay was started by the addition of 10 μM of fluorescent substrate DNP-Pro-Cha-Gly-Cys(Me)-His-Ala-Lys(N-Me-Abz)-NH2 [Cha=β-cyclohexylalanyl; Abz=2-aminobenzoyl(anthraniloyl)] (Kd ˜7 microMolar). […] Any inhibition <50% is considered not active under these assay conditions.
The target in data set [8] is Catalytic domain of MMP-1 (human recombinant) (Homo sapiens (Human), UniProt P03956). Kind of data set: MMP-1 inhibition assay. It is filed as biochemical. The following applies: compound 10 microMolar; substrate 10 microMolar; <50% considered not active; read-out: Average Percent Inhibition MMP-1.
The target in data set [9] is Catalytic domain of MMP-3 (human recombinant) (Homo sapiens (Human), UniProt P08254). The data set can be described thus: MMP-3 inhibition assay. It counts as biochemical. The conditions noted are these: compound 10 microMolar; substrate McaRPKPVENvalWRK(Dnp)NH2 10 microMolar; <50% considered not active; read-out: Average Percent Inhibition MMP-3. As to the method:
Catalytic domain of MMP-3 (human recombinant) enzyme was then added to the compound solution. […] A positive control was then run separately using the broad spectrum MMP inhibitor Tyr-hydroxamic acid as a control compound. […]

Another data set has as its target MMP-12 (Homo sapiens (Human), UniProt P39900). Kind of data set: MMP-12 inhibition assay (electrophoretic mobility shift). It counts as biochemical. The conditions noted are these: compound 10 microMolar; Fluorescein-labeled peptide 4 microMolar; <50% considered not active; read-out: Average Percent Inhibition MMP-12. Here is the method: MMP-12 inhibitor activity was carried out by first separating the cleaved and uncleaved substrates by charge via electrophoretic mobility shift and then measuring the fluorescence of the separated products and comparing them with control reactions to determine inhibition of enzyme activity. The MMP-12 assay was then run using an assay buffer comprising of 100 mM HEPES, pH 7.5, 0.01% Brij-35, 1.5 mM NaCl and 2 mM CaCl2. […] The reaction was started by first adding the substrate and then incubating the reaction mixture for 1 hour at room temperature. The reaction was then terminated via the addition of a stop buffer consisting of 100 mM HEPES (pH 7.5), 30 mM EDTA, 0.015% Brij-35, and 5% DMSO. […]
(In general: A gel shift assay detects complexes by their altered migration in electrophoresis.)

Catalytic domain of MMP-9 (human recombinant), sequence (P14780 107-444): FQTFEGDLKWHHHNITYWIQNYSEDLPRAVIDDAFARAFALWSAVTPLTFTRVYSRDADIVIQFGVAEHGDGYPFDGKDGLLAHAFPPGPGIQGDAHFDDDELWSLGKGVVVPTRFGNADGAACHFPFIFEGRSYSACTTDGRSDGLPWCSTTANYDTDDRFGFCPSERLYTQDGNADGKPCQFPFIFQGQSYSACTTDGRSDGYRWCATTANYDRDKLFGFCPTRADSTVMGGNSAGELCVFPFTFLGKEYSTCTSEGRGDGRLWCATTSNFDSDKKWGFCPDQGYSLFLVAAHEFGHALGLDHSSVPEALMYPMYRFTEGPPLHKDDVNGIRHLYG
Catalytic domain of MMP-3 (human recombinant), sequence (P08254 100-272): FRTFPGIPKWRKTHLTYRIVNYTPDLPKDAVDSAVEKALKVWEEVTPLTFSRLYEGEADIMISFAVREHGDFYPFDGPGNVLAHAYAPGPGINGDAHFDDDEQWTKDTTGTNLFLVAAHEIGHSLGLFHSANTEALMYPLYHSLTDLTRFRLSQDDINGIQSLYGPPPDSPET
MMP-12, sequence (P39900 106-470, species assumed): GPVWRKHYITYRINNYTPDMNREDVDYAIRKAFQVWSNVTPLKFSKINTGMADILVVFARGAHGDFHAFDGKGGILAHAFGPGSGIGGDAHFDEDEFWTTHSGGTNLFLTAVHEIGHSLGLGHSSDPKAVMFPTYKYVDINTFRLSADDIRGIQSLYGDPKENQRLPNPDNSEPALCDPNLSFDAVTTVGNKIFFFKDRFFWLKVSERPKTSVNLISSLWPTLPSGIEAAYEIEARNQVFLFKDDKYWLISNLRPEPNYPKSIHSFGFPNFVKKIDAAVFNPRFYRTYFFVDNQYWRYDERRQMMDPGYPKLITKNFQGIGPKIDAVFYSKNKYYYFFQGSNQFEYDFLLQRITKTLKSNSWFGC
Catalytic domain of MMP-1 (human recombinant), sequence (P03956 98-276): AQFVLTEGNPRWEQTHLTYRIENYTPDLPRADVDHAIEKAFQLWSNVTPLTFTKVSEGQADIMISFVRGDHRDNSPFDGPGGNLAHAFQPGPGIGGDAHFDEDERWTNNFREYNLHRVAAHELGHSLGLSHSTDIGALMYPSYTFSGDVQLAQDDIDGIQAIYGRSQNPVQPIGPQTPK
Catalytic domain of MMP-2 (human recombinant), sequence (P08253 110-465): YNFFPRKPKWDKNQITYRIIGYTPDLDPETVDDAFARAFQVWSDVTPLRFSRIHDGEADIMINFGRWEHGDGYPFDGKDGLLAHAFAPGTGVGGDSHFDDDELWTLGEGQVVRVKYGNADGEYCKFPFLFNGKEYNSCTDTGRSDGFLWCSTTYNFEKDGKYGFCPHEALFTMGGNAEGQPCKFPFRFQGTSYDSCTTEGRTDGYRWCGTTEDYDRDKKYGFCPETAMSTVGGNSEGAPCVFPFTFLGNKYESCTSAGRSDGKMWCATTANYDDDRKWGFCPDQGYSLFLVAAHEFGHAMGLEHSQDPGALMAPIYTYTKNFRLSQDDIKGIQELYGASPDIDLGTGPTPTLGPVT

`[2H]C([2H])(NC(=O)c1cc(C(=O)NCc2cccc(OC)c2)ncn1)c1ccc(C(=O)O)cc1`: the IC50 in data set [1] was under 0.1 µM. Consider `Cc1cc(CNC(=O)c2cc(C(=O)NCc3ccc(C(=O)O)cc3)ncn2)ccc1F` [Compound 45, 4-({[6-(4-Fluoro-3-methyl-benzylcarbamoyl)-pyrimidine-4-carbonyl]-amino}-methyl)-benzoic acid], for which, in [2], the AUC(0-inf) was determined as 428 ng·h/mL, the AUC(0-t) came to 414 ng·h/mL, the Cmax was 310 ng/mL and the Tmax turned out to be 24.6 min. The compound also showed a half-life in [2] of 110 min. Regarding `[2H]C([2H])(NC(=O)c1cc(C(=O)NCc2ccc(F)c(C)c2)ncn1)c1ccc(C(=O)O)cc1` [Compound 56, 4-(Dideutero-{[6-(4-fluoro-3-methyl-benzylcarbamoyl)-pyrimidine-4-carbonyl]-amino}-methyl)-benzoic acid], in [2], the AUC(0-inf) turned out to be 705 ng·h/mL, the AUC(0-t) amounted to 697 ng·h/mL, the concentration peaked (Cmax) at 362 ng/mL and the Tmax was found to be 45 min. This compound also had a half-life in [2] of 73.2 min.

As to `CNC(=O)[C@@H](NC(=O)[C@H](CC(C)C)[C@H](O)C(=O)NO)C(C)(C)C` [Marimastat, marimastat], in data set [3], the Toxicities in humans result was “time-dependent and dose-dependent musculoskeletal toxicities (arthralgia, myalgia, tendinitis)”. As to `Cc1cc(CNC(=O)c2cc(C(=O)NCc3ccc(C(=O)O)cc3)ncn2)ccc1F` [drawing 264], the “Mean Remaining Parent with NADPH (%)” value in [4] amounted to 103%. `[2H]C([2H])(NC(=O)c1cc(C(=O)NCc2ccc(F)c(C)c2)ncn1)c1ccc(C(=O)O)cc1` [drawing 265]: the “Mean Remaining Parent with NADPH (%)” value in data set [4] is 104%. As for `[2H]C([2H])(NC(=O)c1cc(C(=O)NCc2ccc(C(=O)O)cc2)ncn1)c1ccc(F)c(C)c1` [drawing 266], the “Mean Remaining Parent with NADPH (%)” value in [4] is listed as 95.6%. Still for that read-out and setting: in the case of `COc1cccc(CNC(=O)c2cc(C(=O)NCc3ccc(-c4nnn[nH]4)cc3)ncn2)c1` [drawing 267] it was 88.1%; in that of `[2H]C([2H])(NC(=O)c1cc(C(=O)NCc2ccc(-c3nn[nH]n3)cc2)ncn1)c1cccc(OC)c1` [drawing 268], 95.3%; in that of `Cc1cc(CNC(=O)c2cc(C(=O)NCc3ccc(F)c(C)c3)ncn2)ccc1F` [drawing 269], 5.3%. For the compound `[2H]C([2H])(NC(=O)c1cc(C(=O)NC([2H])([2H])c2ccc(F)c(C)c2)ncn1)c1ccc(F)c(C)c1` [drawing 270], in data set [4], the “Mean Remaining Parent with NADPH (%)” value stood at 5.5%. Consider `Cc1cc(CNC(=O)c2cc(C(=O)NCc3ccc(C(=O)O)cc3)ncn2)ccc1F` [drawing 271], for which the “% Mean Remaining Parent with NADPH (%)” value in data set [5] is on record as 90.7%. For `[2H]C([2H])(NC(=O)c1cc(C(=O)NCc2ccc(C(=O)O)cc2)ncn1)c1ccc(F)c(C)c1` [drawing 272], in [5], the “% Mean Remaining Parent with NADPH (%)” value is recorded as 87.4%. Consider `[2H]C([2H])(NC(=O)c1cc(C(=O)NCc2ccc(F)c(C)c2)ncn1)c1ccc(C(=O)O)cc1` [drawing 273], for which the “% Mean Remaining Parent with NADPH (%)” value in [5] is 98.5%. On the same count and under the same terms, in the case of `COc1cccc(CNC(=O)c2cc(C(=O)NCc3ccc(-c4nnn[nH]4)cc3)ncn2)c1` [drawing 274] it was 52.8%.

`[2H]C([2H])(NC(=O)c1cc(C(=O)NCc2ccc(-c3nn[nH]n3)cc2)ncn1)c1cccc(OC)c1` [drawing 275]: the “% Mean Remaining Parent with NADPH (%)” value in data set [5] turned out to be 57.4%. Same read-out and setting: as for `Cc1cc(CNC(=O)c2cc(C(=O)NCc3ccc(F)c(C)c3)ncn2)ccc1F` [drawing 276], the figure is 0.6%; as for `[2H]C([2H])(NC(=O)c1cc(C(=O)NC([2H])([2H])c2ccc(F)c(C)c2)ncn1)c1ccc(F)c(C)c1` [drawing 277], 1.7%. Consider `[2H]C([2H])(NC(=O)c1cc(C(=O)NCc2ccc(C(=O)O)cc2)ncn1)c1ccc(F)c(C)c1` [drawing 278], for which, in [6], the inhibition at 10 µM was 8.19%. Take `[2H]C([2H])(NC(=O)c1cc(C(=O)NCc2ccc(C(=O)O)cc2)ncn1)c1ccc(F)c(C)c1` [drawing 279]: in data set [7], the inhibition at 10 µM came to 2.39%. With `[2H]C([2H])(NC(=O)c1cc(C(=O)NCc2ccc(C(=O)O)cc2)ncn1)c1ccc(F)c(C)c1` [drawing 280], the inhibition at 10 µM in data set [8] worked out at 1.83%.

In the case of `[2H]C([2H])(NC(=O)c1cc(C(=O)NCc2ccc(C(=O)O)cc2)ncn1)c1ccc(F)c(C)c1` [drawing 281], in data set [9], the inhibition at 10 µM came out at 1.31%. On to `[2H]C([2H])(NC(=O)c1cc(C(=O)NCc2ccc(C(=O)O)cc2)ncn1)c1ccc(F)c(C)c1` [drawing 282], for which, on MMP-12, the inhibition at 10 µM is 0.68%. Consider `[2H]C([2H])(NC(=O)c1cc(C(=O)NCc2ccc(-c3nn[nH]n3)cc2)ncn1)c1cccc(OC)c1` [drawing 283], for which, in [1] (read-out: Average Percent Inhibition MMP-13), the inhibition at 1 µM stood at 92%. For the compound `[2H]C([2H])(NC(=O)c1cc(C(=O)NCc2ccc(C(=O)O)cc2)ncn1)c1ccc(F)c(C)c1` [drawing 284], the IC50 in data set [1] was under 0.1 µM. For the compound `[2H]C([2H])(NC(=O)c1cc(C(=O)NCc2ccc(F)c(C)c2)ncn1)c1ccc(C(=O)O)cc1` [drawing 285], the IC50 in data set [1] was under 0.1 µM.

Usually IC50 stands for the concentration that gives 50% inhibition. In general, AUC(0-inf) refers to total exposure, with the tail of the curve extrapolated. Read a low AUC(0-inf) as less exposure. Usually AUC(0-t) stands for the area under the concentration-time curve up to a stated or last time point. Low values mean less exposure, high ones more exposure. Usually Cmax stands for the highest concentration seen after dosing. One may read the Tmax as the time from dosing to the highest level. As a reminder, the half-life is the time in which the quantity being followed falls by half. The low end stands for rapid decline, the high end for slow decline. In general, inhibition refers to the relative decrease from the control value, in per cent.
